Assay results reported in ChEMBL document CHEMBL1138821, “Amino porphyrins as photoinhibitors of Gram-positive and -negative bacteria” (2004).
Converted amounts (≈) assume the structure as drawn. Blank lines part the entries; values can stand above or below the compound they belong to.

Legend:
Format in all cases: functional
[1] = system: Staphylococcus aureus; test: Minimal inhibitory concentration against Staphylococcus aureus was evaluated
[2] = system: Staphylococcus aureus; test: Minimal inhibitory concentration against Staphylococcus aureus was evaluated; Range = 1-1.5 ug/mL
[3] = system: Staphylococcus aureus; test: Minimal bacterial concentration against Staphylococcus aureus was evaluated
[4] = system: Staphylococcus aureus; test: Minimal bacterial concentration against Staphylococcus aureus was evaluated; Range = 1-1.5 ug/mL
[5] = system: Staphylococcus aureus; test: Minimal inhibitory concentration against Staphylococcus aureus was evaluated; Range = 0.5-1.0 ug/mL
[6] = system: Staphylococcus aureus; test: Minimal inhibitory concentration against Staphylococcus aureus was evaluated; Range = 1.5-2.0 ug/mL
[7] = system: Staphylococcus aureus; test: Minimal inhibitory concentration against Staphylococcus aureus was evaluated; Range = 1.5-2 ug/mL
[8] = system: Staphylococcus aureus; test: Minimal inhibitory concentration against Staphylococcus aureus was evaluated; Range = 0-0.5 ug/mL
[9] = system: Staphylococcus aureus; test: Minimal bacterial concentration against Staphylococcus aureus was evaluated; Range = 1.0-1.5ug/mL
[10] = system: Escherichia coli; test: Minimal bacterial concentration against Escherichia coli was evaluated; Range = 1.5-2.0 ug/mL
[11] = system: Escherichia coli; test: Minimal bacterial concentration against Escherichia coli was evaluated; Range = 2-2.5 ug/mL
[12] = system: Staphylococcus aureus; test: Minimal bacterial concentration against Staphylococcus aureus was evaluated; Range = 2-2.5 ug/mL

SMILES: Cc1ccc(C2c3ccc([nH]3)C(c3ccc(C)cc3)c3ccc([nH]3)C(c3ccccc3NC(=O)C(N)CO)c3ccc([nH]3)C(c3ccc(C)cc3)c3ccc2[nH]3)cc1 (configuration not stated)
MIC [1]: > 3 µg/mL

SMILES: CC(N)C(=O)Nc1ccc(C2c3ccc([nH]3)C(c3ccc(NC(=O)C(C)N)cc3)c3ccc([nH]3)C(c3ccc(O[C@@H]4O[C@@H](CO)[C@@H](O)[C@H](O)[C@@H]4O)cc3)c3ccc([nH]3)C(c3ccc(NC(=O)C(C)N)cc3)c3ccc2[nH]3)cc1 (some centres not stated)
MIC [2]: 1.5 µg/mL (≈ 1.42 µM) | MBC [3]: > 1.5 µg/mL

SMILES: Cc1ccc(C2c3ccc([nH]3)C(c3ccc(C)cc3)c3ccc([nH]3)C(c3ccc(OCCCC(=O)N(CCCN)CCCCNCCCN)cc3)c3ccc([nH]3)C(c3ccc(C)cc3)c3ccc2[nH]3)cc1 (configuration not stated)
MIC [2]: 1.5 µg/mL (≈ 1.58 µM) | MBC [3]: > 1.5 µg/mL

SMILES: Nc1ccc(C2c3ccc([nH]3)C(c3ccc(O[C@@H]4O[C@@H](CO)[C@@H](O)[C@H](O)[C@@H]4O)cc3)c3ccc([nH]3)C(c3ccc(O[C@@H]4O[C@@H](CO)[C@@H](O)[C@H](O)[C@@H]4O)cc3)c3ccc([nH]3)C(c3ccc(O[C@@H]4O[C@@H](CO)[C@@H](O)[C@H](O)[C@@H]4O)cc3)c3ccc2[nH]3)cc1 (some centres not stated)
MIC [2]: 1.5 µg/mL (≈ 1.28 µM) | MBC [4]: 1.5 µg/mL (≈ 1.28 µM)

SMILES: Nc1ccc(C2c3ccc([nH]3)C(c3ccc(N)cc3)c3ccc([nH]3)C(c3ccccc3O[C@@H]3O[C@@H](CO)[C@@H](O)[C@H](O)[C@@H]3O)c3ccc([nH]3)C(c3ccc(N)cc3)c3ccc2[nH]3)cc1 (some centres not stated)
MIC [6]: 2 µg/mL (≈ 2.37 µM) | MBC [3]: > 1.5 µg/mL

SMILES: CC(N)C(=O)Nc1ccc(C2c3ccc([nH]3)C(c3ccc(O[C@@H]4O[C@@H](CO)[C@@H](O)[C@H](O)[C@@H]4O)cc3)c3ccc([nH]3)C(c3ccc(O[C@@H]4O[C@@H](CO)[C@@H](O)[C@H](O)[C@@H]4O)cc3)c3ccc([nH]3)C(c3ccc(O[C@@H]4O[C@@H](CO)[C@@H](O)[C@H](O)[C@@H]4O)cc3)c3ccc2[nH]3)cc1 (some centres not stated)
MIC [2]: 1.5 µg/mL (≈ 1.21 µM) | MBC [3]: > 1.5 µg/mL

SMILES: CC(N)C(=O)Nc1ccc(C2c3ccc([nH]3)C(c3ccc(NC(=O)C(C)N)cc3)c3ccc([nH]3)C(c3ccccc3O[C@@H]3O[C@@H](CO)[C@@H](O)[C@H](O)[C@@H]3O)c3ccc([nH]3)C(c3ccc(NC(=O)C(C)N)cc3)c3ccc2[nH]3)cc1 (some centres not stated)
MIC [7]: 2 µg/mL (≈ 1.89 µM) | MBC [3]: > 1.5 µg/mL

SMILES: Nc1ccc(C2c3ccc([nH]3)C(c3ccc(O[C@@H]4O[C@@H](CO)[C@@H](O)[C@H](O)[C@@H]4O)cc3)c3ccc([nH]3)C(c3ccc(N)cc3)c3ccc([nH]3)C(c3ccc(O[C@@H]4O[C@@H](CO)[C@@H](O)[C@H](O)[C@@H]4O)cc3)c3ccc2[nH]3)cc1 (some centres not stated)
MIC [8]: 0.5 µg/mL (≈ 0.496 µM) | MBC [4]: 1.5 µg/mL (≈ 1.49 µM)

SMILES: Nc1ccccc1C1c2ccc([nH]2)C(c2ccc(O[C@@H]3O[C@@H](CO)[C@@H](O)[C@H](O)[C@@H]3O)cc2)c2ccc([nH]2)C(c2ccc(O[C@@H]3O[C@@H](CO)[C@@H](O)[C@H](O)[C@@H]3O)cc2)c2ccc([nH]2)C(c2ccc(O[C@@H]3O[C@@H](CO)[C@@H](O)[C@H](O)[C@@H]3O)cc2)c2ccc1[nH]2 (some centres not stated)
MBC [3]: > 1.5 µg/mL | MIC [5]: 1 µg/mL (≈ 0.855 µM)

SMILES: Nc1ccc(C2c3ccc([nH]3)C(c3ccc(N)cc3)c3ccc([nH]3)C(c3ccc(O[C@@H]4O[C@@H](CO)[C@@H](O)[C@H](O)[C@@H]4O)cc3)c3ccc([nH]3)C(c3ccc(O[C@@H]4O[C@@H](CO)[C@@H](O)[C@H](O)[C@@H]4O)cc3)c3ccc2[nH]3)cc1 (some centres not stated)
MIC [1]: > 3 µg/mL

SMILES: Cc1ccc(C2c3ccc([nH]3)C(c3ccc(C)cc3)c3ccc([nH]3)C(c3ccc(NC(=O)C(N)CO)cc3)c3ccc([nH]3)C(c3ccc(C)cc3)c3ccc2[nH]3)cc1 (configuration not stated)
MIC [1]: > 3 µg/mL

Continued, in another order:

MIC [5]: 1 µg/mL (≈ 0.87 µM)
SMILES: CC(N)C(=O)Nc1ccc(C2c3ccc([nH]3)C(c3ccc(NC(=O)C(C)N)cc3)c3ccc([nH]3)C(c3ccc(O[C@@H]4O[C@@H](CO)[C@@H](O)[C@H](O)[C@@H]4O)cc3)c3ccc([nH]3)C(c3ccc(O[C@@H]4O[C@@H](CO)[C@@H](O)[C@H](O)[C@@H]4O)cc3)c3ccc2[nH]3)cc1 (some centres not stated)
MBC [4]: 1.5 µg/mL (≈ 1.31 µM)

MIC [5]: 1 µg/mL (≈ 1.12 µM)
SMILES: Cc1ccc(C2c3ccc([nH]3)C(c3ccc(C)cc3)c3ccc([nH]3)C(c3ccc(OCCCC(=O)N(CCCN)CCCCN)cc3)c3ccc([nH]3)C(c3ccc(C)cc3)c3ccc2[nH]3)cc1 (configuration not stated)
MBC [4]: 1.5 µg/mL (≈ 1.68 µM)

MIC [5]: 1 µg/mL (≈ 0.87 µM)
SMILES: CC(N)C(=O)Nc1ccc(C2c3ccc([nH]3)C(c3ccc(O[C@@H]4O[C@@H](CO)[C@@H](O)[C@H](O)[C@@H]4O)cc3)c3ccc([nH]3)C(c3ccc(NC(=O)C(C)N)cc3)c3ccc([nH]3)C(c3ccc(O[C@@H]4O[C@@H](CO)[C@@H](O)[C@H](O)[C@@H]4O)cc3)c3ccc2[nH]3)cc1 (some centres not stated)
MBC [4]: 1.5 µg/mL (≈ 1.31 µM)

MIC [1]: > 2.5 µg/mL
SMILES: Cc1ccc(C2c3ccc([nH]3)C(c3ccc(C)cc3)c3ccc([nH]3)C(c3ccccc3OCCCC(=O)NC(CCCN=C(N)N)C(=O)NCC(=O)NC(CC(=O)O)C(=O)O)c3ccc([nH]3)C(c3ccc(C)cc3)c3ccc2[nH]3)cc1 (configuration not stated)
MBC [3]: > 3 µg/mL

MIC [5]: 1 µg/mL (≈ 0.631 µM)
SMILES: N=C(N)NCCCC(NC(=O)CCCOc1ccc(C2c3ccc([nH]3)C(c3ccc(O[C@@H]4O[C@@H](CO)[C@@H](O)[C@H](O)[C@@H]4O)cc3)c3ccc([nH]3)C(c3ccc(O[C@@H]4O[C@@H](CO)[C@@H](O)[C@H](O)[C@@H]4O)cc3)c3ccc([nH]3)C(c3ccc(O[C@@H]4O[C@@H](CO)[C@@H](O)[C@H](O)[C@@H]4O)cc3)c3ccc2[nH]3)cc1)C(=O)NCC(=O)NC(CC(=O)O)C(=O)O (some centres not stated)
MBC [4]: 1.5 µg/mL (≈ 0.946 µM)

MIC [2]: 1.5 µg/mL (≈ 1.78 µM)
SMILES: Nc1ccc(C2c3ccc([nH]3)C(c3ccc(N)cc3)c3ccc([nH]3)C(c3ccc(O[C@@H]4O[C@@H](CO)[C@@H](O)[C@H](O)[C@@H]4O)cc3)c3ccc([nH]3)C(c3ccc(N)cc3)c3ccc2[nH]3)cc1 (some centres not stated)
MBC [3]: > 1.5 µg/mL

MIC [5]: 1 µg/mL (≈ 0.625 µM)
SMILES: N=C(N)NCCCC(NC(=O)CCCCOc1ccccc1C1c2ccc([nH]2)C(c2ccc(O[C@@H]3O[C@@H](CO)[C@@H](O)[C@H](O)[C@@H]3O)cc2)c2ccc([nH]2)C(c2ccc(O[C@@H]3O[C@@H](CO)[C@@H](O)[C@H](O)[C@@H]3O)cc2)c2ccc([nH]2)C(c2ccc(O[C@@H]3O[C@@H](CO)[C@@H](O)[C@H](O)[C@@H]3O)cc2)c2ccc1[nH]2)C(=O)NCC(=O)NC(CC(=O)O)C(=O)O (some centres not stated)
MBC [4]: 1.5 µg/mL (≈ 0.938 µM)

MIC [1]: > 2.5 µg/mL
SMILES: Cc1ccc(C2c3ccc([nH]3)C(c3ccc(C)cc3)c3ccc([nH]3)C(c3ccc(OCCCC(=O)NC(CCCN=C(N)N)C(=O)NCC(=O)NC(CC(=O)O)C(=O)O)cc3)c3ccc([nH]3)C(c3ccc(C)cc3)c3ccc2[nH]3)cc1 (configuration not stated)
MBC [3]: > 3 µg/mL

MIC [1]: > 2.5 µg/mL
SMILES: Cc1ccc(C2c3ccc([nH]3)C(c3ccc(C)cc3)c3ccc([nH]3)C(c3ccc(N)cc3)c3ccc([nH]3)C(c3ccc(C)cc3)c3ccc2[nH]3)cc1 (configuration not stated)
MBC [3]: > 3 µg/mL

MIC [1]: > 2.5 µg/mL
SMILES: Cc1ccc(C2c3ccc([nH]3)C(c3ccc(C)cc3)c3ccc([nH]3)C(c3ccccc3N)c3ccc([nH]3)C(c3ccc(C)cc3)c3ccc2[nH]3)cc1 (configuration not stated)
MBC [3]: > 3 µg/mL

MIC [6]: 2 µg/mL (≈ 1.61 µM)
SMILES: CC(N)C(=O)Nc1ccccc1C1c2ccc([nH]2)C(c2ccc(O[C@@H]3O[C@@H](CO)[C@@H](O)[C@H](O)[C@@H]3O)cc2)c2ccc([nH]2)C(c2ccc(O[C@@H]3O[C@@H](CO)[C@@H](O)[C@H](O)[C@@H]3O)cc2)c2ccc([nH]2)C(c2ccc(O[C@@H]3O[C@@H](CO)[C@@H](O)[C@H](O)[C@@H]3O)cc2)c2ccc1[nH]2 (some centres not stated)
MBC [3]: > 1.5 µg/mL

MIC [5]: 1 µg/mL (≈ 0.93 µM)
SMILES: C=CC1=C(C)/C2=C/c3[nH]c(c(C)c3C=C)/C=c3\[nH]/c(c(CCC(=O)NCCCCN(CCCN)CCCCNCCCN)c3C)=C\C3=NC(CC1=N2)C(C)=C3CCC(=O)NCCCCN(CCCN)CCCCNCCCN (configuration not stated)
MBC [9]: 1.5 µg/mL (≈ 1.39 µM) | MBC [10]: 2 µg/mL (≈ 1.86 µM)

MIC [7]: 2 µg/mL (≈ 2.08 µM)
SMILES: C=CC1=C(C)/C2=C/c3[nH]c(c(C)c3C=C)/C=c3\[nH]/c(c(CCC(=O)NCCCCN(CCCN)CCCCN)c3C)=C\C3=NC(CC1=N2)C(C)=C3CCC(=O)NCCCCN(CCCN)CCCCN (configuration not stated)
MBC [11]: 2.5 µg/mL (≈ 2.6 µM) | MBC [12]: 2.5 µg/mL (≈ 2.6 µM)
